# According to the Deep4Chem optical property database:
# Several values for one entry are separate records, joined by “and”; a condition that tells them apart may be missing. Equal values may be shown once.
# Assay: solvent given as SMILES
structure (smiles),measurement,setting,value
CN(C)c1ccc(/C=C/c2cc[n+](CCCOCC(COCCC[n+]3ccc(/C=C/c4ccc(N(C)C)cc4)cc3)(COCCC[n+]3ccc(/C=C/c4ccc(N(C)C)cc4)cc3)COCCC[n+]3ccc(/C=C/c4ccc(N(C)C)cc4)cc3)cc2)cc1,absorption maximum,in C1COCCO1,460 nm
same,absorption maximum,in CC(C)O,479 nm
same,absorption maximum,in CCCCCCCCO,485 nm
same,absorption maximum,in CCCCO,480 nm
same,absorption maximum,in CCCO,482 nm
same,absorption maximum,in CCO,484 nm
same,absorption maximum,in CO,486 nm
same,absorption maximum,in CS(C)=O,479 nm
same,absorption maximum,in ClC(Cl)Cl,489 nm
same,absorption maximum,in ClCCl,489 nm
C[C@]12C(=O)NC(=O)N([C@H]3CC(O)[C@@H](CO)O3)[C@H]1[C@H]1Oc3cc4oc(=O)ccc4cc3[C@H]12 (some centres not stated),absorption maximum,in CC(C)O,327 nm
same,absorption maximum,in CCO,327 nm
same,absorption maximum,in CCOCC,325 nm
same,absorption maximum,in CO,328 nm
same,absorption maximum,in O,329 nm
CN(C)c1ccc(/C=C2/N=C(c3ccccc3)OC2=O)cc1,absorption maximum,in C1CCCCC1,456 nm
same,absorption maximum,in C1COCCO1,466 nm
same,absorption maximum,in CC#N,473 nm
same,absorption maximum,in CC(C)=O,470 nm
same,absorption maximum,in CC(C)O,470 nm
same,absorption maximum,in CCCCCC,443 nm
same,absorption maximum,in CCCCCO,470 nm
same,absorption maximum,in CCCCO,472 nm
same,absorption maximum,in CCO,470 nm
same,absorption maximum,in CN(C)C=O,482 nm
same,absorption maximum,in CO,473 nm
same,absorption maximum,in ClC(Cl)(Cl)Cl,466 nm
same,absorption maximum,in ClC(Cl)Cl,472 nm
same,absorption maximum,in ClCCl,472 nm
CCc1ccc(C2=[N+]3C(=Cc4c5ccc(OC)cc5c(-c5ccc(CC)s5)n4[B-]3(F)F)c3ccc(OC)cc32)s1,absorption maximum,in ClCCl,727 nm
O=c1[nH]nc(-c2ccc(/C=C/c3ccc(-c4n[nH]c(=O)o4)cc3)cc2)o1,absorption maximum,in CN(C)C=O,334 nm
CCCc1c(C(=O)c2ccc3c4c(cccc24)-c2cccc4c2C3CC=C4)c2ccc3cccc4c5cccc6ccc1c(c65)c2c34 (configuration not stated),absorption maximum,in ClCCl,468 nm
CC(=O)Nc1ccc2ccc3cccc4ccc1c2c34,absorption maximum,in CC#N,339 nm
same,absorption maximum,in CCCCOCCCC,341 nm
same,absorption maximum,in CO,338 nm
c1ccc(-c2nc3ccccc3nc2-c2ccc(-n3c4ccccc4c4ccccc43)cc2)cc1,absorption maximum,in Cc1ccccc1,345 nm
CCN(CC)c1ccc2cc(C#N)c(=N)oc2c1,absorption maximum,in ClCCl,428 nm
CC(C)[Si](C#Cc1c2nsnc2c(C#C[Si](C(C)C)(C(C)C)C(C)C)c2nc3c4ccccc4c(=O)c4ccccc4c3nc12)(C(C)C)C(C)C,absorption maximum,in ClCCl,561 nm
CC(C)(C)c1ccc2c(c1)c1cc(C(C)(C)C)ccc1n2-c1ccc(-c2ccc3c(c2)C2(c4cc(-c5ccc(-n6c7ccc(C(C)(C)C)cc7c7cc(C(C)(C)C)ccc76)cc5)ccc4-3)c3ccccc3S(=O)(=O)c3ccccc32)cc1,absorption maximum,in ClCCl,353 nm
CC/[NH+]=c1\cc2oc3cc(NCCC(=O)NC(CCC(=O)OC)C(=O)OC)c4ccccc4c3nc-2cc1C (configuration not stated),absorption maximum,in CCO,600 nm
same,absorption maximum,in O,600 nm
c1ccc(N(c2ccccc2)c2ccc(-c3ccc4c(c3)C3(c5cc(-c6ccc(N(c7ccccc7)c7ccccc7)cc6)ccc5S4)c4ccccc4-c4ccccc43)cc2)cc1,absorption maximum,in ClCCl,356 nm
N#Cc1c(-n2c3ccccc3c3cc(I)ccc32)c(C#N)c(-n2c3ccccc3c3cc(I)ccc32)c(-n2c3ccccc3c3cc(I)ccc32)c1-n1c2ccccc2c2cc(I)ccc21,absorption maximum,in Cc1ccccc1,383 nm
CCCCC1=Cc2c3ccc4cccc5ccc(c6cc(-c7ccc(N(c8ccccc8)c8ccccc8)cc7)n(c26)P1(=O)c1ccccc1)c3c45 (configuration not stated),absorption maximum,in C1CCCCC1,431 nm
same,absorption maximum,in C1CCOC1,432 nm
same,absorption maximum,in C1COCCO1,432 nm
same,absorption maximum,in CC#N,428 nm
same,absorption maximum,in CC(C)=O,429 nm
same,absorption maximum,in CO,428 nm
same,absorption maximum,in Cc1ccccc1,434 nm
same,absorption maximum,in ClC(Cl)Cl,433 nm
same,absorption maximum,in ClCCl,431 nm
COc1cc2c(cc1-c1ccc(N(c3ccccc3)c3ccccc3)cc1)Cc1c3c(c4c(c1-2)-c1cc(OC)c(-c2ccc(N(c5ccccc5)c5ccccc5)cc2)cc1C4)C(=O)N(CCC(C)C)C3=O,absorption maximum,in C1CCOC1,428 nm
CC1(C)CCc2c(c3ccccc3c3nc4ccccc4nc23)O1,absorption maximum,in C1CCCCC1,429.92 nm
same,absorption maximum,in C1CCOC1,434.03 nm
same,absorption maximum,in CN(C)C=O,438.98 nm
same,absorption maximum,in CO,434.97 nm
same,absorption maximum,in ClC(Cl)Cl,437.06 nm
same,absorption maximum,in c1ccccc1,431.03 nm
c1ccc(-c2csc(-c3ccncc3)n2)cc1,absorption maximum,in CC#N,370 nm
same,absorption maximum,in CCO,325 nm
same,absorption maximum,in CN(C)C=O,323 nm
same,absorption maximum,in CS(C)=O,325 nm
same,absorption maximum,in ClCCl,376 nm
O=C(O)c1ccc(-c2nc(-c3ccccc3)c3c4ccccc4ccn23)cc1,absorption maximum,in CC#N,353 nm
CC1=N/C(=C\c2cccc(N(C)C)c2)C(=O)N1CCO,absorption maximum,in C1CCOC1,354 nm
same,absorption maximum,in CC#N,352 nm
same,absorption maximum,in CCCCCC,352 nm
F[B-]1(F)n2cccc2C(c2c3ccccc3c(-c3ccccc3)c3ccccc23)=C2C=CC=[N+]21,absorption maximum,in CC#N,502 nm
same,absorption maximum,in CCCCCC,509 nm
same,absorption maximum,in CCO,504 nm
same,absorption maximum,in CN(C)C=O,506 nm
same,absorption maximum,in Cc1ccccc1,509 nm
same,absorption maximum,in ClCCl,506 nm
c1ccc(C2CCN3COc4c5ccccc5c5c6c7c(c2c3c46)C(c2ccccc2)CCN7CO5)cc1 (configuration not stated),absorption maximum,in C1CCCCC1,403 nm
same,absorption maximum,in C1CCOC1,405 nm
same,absorption maximum,in C1COCCO1,405 nm
same,absorption maximum,in CC#N,405 nm
same,absorption maximum,in CC(C)=O,406 nm
same,absorption maximum,in CCOC(C)=O,404 nm
same,absorption maximum,in CCOCC,404 nm
same,absorption maximum,in CN(C)C=O,407 nm
same,absorption maximum,in CO,402 nm
same,absorption maximum,in CS(C)=O,408 nm
same,absorption maximum,in Cc1ccccc1,406 nm
same,absorption maximum,in ClC(Cl)Cl,404 nm
same,absorption maximum,in ClCCl,405 nm
CCCCOc1c(C=C2C=Cc3ccccc3N2C)c(=O)c1=O,absorption maximum,in CCO,465 nm
COc1cc(/C=C/CO)ccc1O,absorption maximum,in O,295 nm
COc1ccc(-c2c3cc4cc(C)sc4cc3c(-c3ccc(OC)cc3)c3cc4cc(C)sc4cc23)cc1,absorption maximum,in ClCCl,500 nm
c1ccc(-c2ccc(-c3ccc4c(c3)CCO4)cc2)cc1,absorption maximum,in C1CCCCC1,289 nm
CCCCCCCCCCC1(CCCCCCCCCC)c2cc(N3C(=O)c4ccc5c6ccc7c8c(ccc(c9ccc(c4c59)C3=O)c86)C(=O)N(c3ccc4c(c3)C(CCCCCCCCCC)(CCCCCCCCCC)c3cc(N(c5ccccc5)c5ccccc5)ccc3-4)C7=O)ccc2-c2ccc(N(c3ccccc3)c3ccccc3)cc21,absorption maximum,in Cc1ccccc1,528 nm
same,absorption maximum,in ClCCl,527 nm
O=P1(c2ccccc2)C(c2ccc(N(c3ccccc3)c3ccccc3)cc2)=Cc2cc3ccccc3cc21 (configuration not stated),absorption maximum,in C1CCOC1,407 nm
same,absorption maximum,in CC#N,404 nm
same,absorption maximum,in CN(C)C=O,407 nm
same,absorption maximum,in Cc1ccccc1,412 nm
same,absorption maximum,in ClC(Cl)Cl,417 nm
same,absorption maximum,in ClCCl,414 nm
COC(=O)C1=C(C(=O)OC)[Se](=O)[C@]23C1=C[C@H](c1ccccc12)c1ccccc13 (some centres not stated),absorption maximum,in ClCCl,341 nm
COc1ccc(C#Cc2ccc(C#N)cc2)cc1,absorption maximum,in C1COCCO1,330 nm
same,absorption maximum,in CC#N,324 nm
same,absorption maximum,in CCCCCC,331 nm
same,absorption maximum,in CCCCCCC,332 nm
same,absorption maximum,in CCCO,328 nm
same,absorption maximum,in CCOC(C)=O,328 nm
same,absorption maximum,in CS(C)=O,329 nm
same,absorption maximum,in ClC(Cl)Cl,332 nm
same,absorption maximum,in ClCCl,330 nm
CN(C)c1ccc(C#Cc2cc3ccc4cc(C#Cc5ccc(N(C)C)cc5)cc5ccc(c2)c3c45)cc1,absorption maximum,in Cc1ccccc1,421 nm
COc1ccc2cc([C@H](C)C(=O)O)ccc2c1,absorption maximum,in CC#N,332.4 nm
same,absorption maximum,in CCCCO,333.3 nm
same,absorption maximum,in CCO,332.2 nm
same,absorption maximum,in CO,332.4 nm
same,absorption maximum,in ClCCl,333.6 nm
same,absorption maximum,in O,331.2 nm
O=[N+]([O-])c1ccccc1O,absorption maximum,in CO,338 nm
same,absorption maximum,in O,411 nm
c1ccc2c(c1)c1ccccc1n2-c1ccc(-c2ccc3nc(-c4ccc(-n5c6ccccc6c6ccccc65)cc4)nn3c2)cc1,absorption maximum,in C1CCOC1,341 nm
CCCCCCOc1cc2cc(=O)oc3ccc4cccc1c4c23,absorption maximum,in CC1CCCO1,460 nm
CCCCN1C(=O)c2cc(Oc3ccc(C(C)(C)C)cc3)c3c4c(Oc5ccc(C(C)(C)C)cc5)cc5c6c(cc(Oc7ccc(C(C)(C)C)cc7)c(c7c(Oc8ccc(C(C)(C)C)cc8)cc(c2c37)C1=O)c64)C(=O)N(CCCC)C5=O,absorption maximum,in ClC(Cl)Cl,582 nm
C(#Cc1c(C#Cc2cccs2)c(C#Cc2cccs2)c(C#Cc2cccs2)c(C#Cc2cccs2)c1C#Cc1cccs1)c1cccs1,absorption maximum,in ClCCl,371 nm
CCCCCCn1c2c(c3ccccc31)-c1c(c3ccccc3n1CCCCCC)-c1c(c3ccccc3n1CCCCCC)-c1c-2c2ccccc2n1CCCCCC,absorption maximum,in ClCCl,312 nm
CC1=N/C(=C\c2cccc(N(C)C)c2)C(=O)N1C,absorption maximum,in C1CCOC1,354 nm
same,absorption maximum,in CC#N,354 nm and 352 nm
same,absorption maximum,in CCCCCC,352 nm
F[B-]1(F)n2c(cc3c4ccccc4c4ccccc4c32)-c2ccc3ccccc3[n+]21,absorption maximum,in ClCCl,476 nm
CN(C)c1ccc(-c2nc(-c3ccccc3)n3ccccc23)cc1,absorption maximum,in ClC(Cl)Cl,314 nm
C(=C1c2ccccc2CCc2ccccc21)c1ccc(C=C2c3ccccc3CCc3ccccc32)cc1,absorption maximum,in C1CCOC1,330 nm
CCCCC(CC)Cn1c2cc(C#N)ccc2c2ccc(C#N)cc21 (configuration not stated),absorption maximum,in ClCCl,387 nm
c1ccc(C(=C(c2ccccc2)c2ccc(-c3nc4c(-c5ccc(C(=C(c6ccccc6)c6ccccc6)c6ccccc6)cc5)sc(-c5ccc(C(=C(c6ccccc6)c6ccccc6)c6ccccc6)cc5)c4nc3-c3ccc(C(=C(c4ccccc4)c4ccccc4)c4ccccc4)cc3)cc2)c2ccccc2)cc1,absorption maximum,in Cc1ccccc1,538 nm
same,absorption maximum,in ClCCl,520 nm
O=C([O-])c1ccc(C(=O)[O-])c(C2=c3cc4c5c(c3Oc3c2cc2c6c3CCCN6CCC2)CCC[N+]=5CCC4)c1,absorption maximum,in CCO,571 nm
same,absorption maximum,in O,574 nm
O=C(N/N=C/c1ccccc1O)c1ccccc1,absorption maximum,in C1CCOC1,334 nm
same,absorption maximum,in CC#N,333 nm
same,absorption maximum,in CC(C)=O,415 nm
same,absorption maximum,in CCO,400 nm
same,absorption maximum,in CN(C)C=O,397 nm
same,absorption maximum,in CS(C)=O,329 nm
same,absorption maximum,in ClCCl,330 nm
Oc1ccc2ccccc2c1/C=N/CC/N=C/c1c(O)ccc2ccccc12,absorption maximum,in CC#N,408 nm
